How the values were obtained:
Type in all cases: cell-based
H1975 = assay: Cancer cell growth inhibition (CellTiter-Glo, 72 hours); settings: Homo sapiens, NCI-H1975, H1975 cells, read-out: GI50s (μM) H1975
Experimental: (§1) Seeding 3000 cells per well in a 96-well plate. After cell stabilization, treat the cells with compounds diluted in 0.5% DMSO at a ⅓ serial dilution and culture for 72 hours. Following treatment with CellTiter-Glo, luminescence is produced only in the presence of ATP, as luciferase degrades luciferin. Luminescence values were measured using Envision (PerkinElmer). Based on the measured luminescence values, the concentration of compounds causing cell death was calculated to determine the GI50 value.
(§2) The activity values were categorized into three levels • A: IC50<1 μM • B: 1 μM≤IC50<10 μM, • C: IC50≥10 μM

H23 = assay: as above; settings: Homo sapiens, NCI-H23, H23 cells, read-out: GI50s (μM) H23
Experimental: as §1, §2

H358 = assay: as above; settings: Homo sapiens, NCI-H358, H358 cells, read-out: GI50s (μM) H358
Experimental: as §1, §2

HCT116 = assay: as above; settings: Homo sapiens, HCT-116, HCT116 cells, read-out: GI50s (μM) HCT116
Experimental: as §1, §2

MDA-MB-231 = assay: as above; settings: Homo sapiens, MDA-MB-231 cells, read-out: GI50s (μM) MDA-MB-231
Experimental: as §1, §2

colo205 = assay: as above; settings: Homo sapiens, COLO 205, colo205 cells, read-out: GI50s (μM) colo205
Experimental: as §1, §2

[1] = biological target: T1, Ba/F3 FLT3 (ITD/D835YF691L) (Homo sapiens, UniProt P36888, F691L/D835Y, cells depend on it, form not given); assay: Ba/F3 cell growth inhibition (CellTiter-Glo, 72 hours); settings: read-out: Ba/F3 GI50s (μM) FLT3 (ITD/D835YF691L)
T1 sequence (P36888 1-993 F691L/D835Y): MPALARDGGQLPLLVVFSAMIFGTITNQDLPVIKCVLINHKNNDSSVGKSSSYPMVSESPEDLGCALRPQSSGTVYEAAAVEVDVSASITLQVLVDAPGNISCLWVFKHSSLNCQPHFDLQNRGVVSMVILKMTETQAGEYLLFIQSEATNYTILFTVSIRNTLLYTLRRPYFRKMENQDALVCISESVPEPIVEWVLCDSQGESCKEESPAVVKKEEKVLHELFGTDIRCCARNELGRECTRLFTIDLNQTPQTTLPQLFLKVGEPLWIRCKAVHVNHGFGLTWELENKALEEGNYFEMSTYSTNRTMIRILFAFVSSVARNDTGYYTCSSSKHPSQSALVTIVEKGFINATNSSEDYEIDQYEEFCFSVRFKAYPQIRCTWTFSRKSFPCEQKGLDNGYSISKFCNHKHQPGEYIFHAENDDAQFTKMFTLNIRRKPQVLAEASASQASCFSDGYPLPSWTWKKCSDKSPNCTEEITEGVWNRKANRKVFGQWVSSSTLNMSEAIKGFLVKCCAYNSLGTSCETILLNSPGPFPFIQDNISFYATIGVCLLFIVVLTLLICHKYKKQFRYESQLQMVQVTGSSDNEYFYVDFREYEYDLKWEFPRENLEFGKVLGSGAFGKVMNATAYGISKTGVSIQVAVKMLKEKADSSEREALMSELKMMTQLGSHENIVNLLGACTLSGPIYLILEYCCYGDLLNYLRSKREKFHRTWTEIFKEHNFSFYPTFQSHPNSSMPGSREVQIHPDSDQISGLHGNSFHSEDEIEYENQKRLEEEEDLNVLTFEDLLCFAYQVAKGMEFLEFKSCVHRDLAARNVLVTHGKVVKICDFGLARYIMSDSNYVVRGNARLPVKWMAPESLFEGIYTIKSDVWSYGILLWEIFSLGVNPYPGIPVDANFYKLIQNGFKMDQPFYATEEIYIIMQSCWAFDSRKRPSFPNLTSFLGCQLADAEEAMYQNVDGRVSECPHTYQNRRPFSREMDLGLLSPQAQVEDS
Experimental: as §1, with “[…]” for “0.5%”
The activity values were categorized into three levels. • A: IC50<1 μM • B: 1 μM≤IC50<10 μM, • C: IC50≥10 μM

## O=C1CCCCOc2ccc(cc2)-c2ccc3cnc(nn23)Nc2cnn(c2)CCCN1 [Example 36, (2^1Z,4^4E)-4^1H-14-oxa-3,8-diaza-2(7,2)-pyrrolo[2,1-f][1,2,4]triazina-4(4,1)-pyrazola-1(1,4)-benzenacyclotetradecaphan-9-one]
H1975
  IC50: 1 to 10 µM
H23
  IC50: < 1 µM
H358
  IC50: 1 to 10 µM
HCT116
  IC50: < 1 µM
MDA-MB-231
  IC50: ≥ 10 µM
colo205
  IC50: 1 to 10 µM
[1]
  GI50: < 1 µM

## O=C1CCCCCCOc2ccc(cc2F)-c2ccc3cnc(nn23)Nc2ccc(cc2)OCCCN1 [Example 20, (Z)-13-fluoro-5,17-dioxa-3,9-diaza-2(7,2)-pyrrolo[2,1-f][1,2,4]triazina-1,4(1,4)-dibenzenacycloheptadecaphan-10-one]
H1975
  IC50: ≥ 10 µM
H23
  IC50: ≥ 10 µM
H358
  IC50: ≥ 10 µM
HCT116
  IC50: ≥ 10 µM
MDA-MB-231
  IC50: ≥ 10 µM
colo205
  IC50: ≥ 10 µM
[1]
  GI50: ≥ 10 µM

## CS(=O)(=O)Nc1cccc(-c2ccc3cnc(Nc4ccc(N5CCN(CCCOc6cccc7c6C(=O)N(C6CCC(=O)NC6=O)C7=O)CC5)cc4)nn23)c1 (centres unmarked) [Example 40]
H1975
  IC50: ≥ 10 µM
H23
  IC50: ≥ 10 µM
H358
  IC50: ≥ 10 µM
HCT116
  IC50: 1 to 10 µM
MDA-MB-231
  IC50: ≥ 10 µM
colo205
  IC50: ≥ 10 µM
[1]
  GI50: < 1 µM

## O=C1CCCCCCOc2ccc(cc2)-c2ccc3cnc(nn23)Nc2ccc(cc2)N2CCN1CC2 [Example 24, (Z)-13-oxa-3-aza-2(7,2)-pyrrolo[2,1-f][1,2,4]triazina-5(1,4)-piperazina-1,4(1,4)-dibenzenacyclotridecaphan-6-one]
H1975
  IC50: 1 to 10 µM
H23
  IC50: 1 to 10 µM
H358
  IC50: 1 to 10 µM
HCT116
  IC50: 1 to 10 µM
MDA-MB-231
  IC50: ≥ 10 µM
colo205
  IC50: 1 to 10 µM
[1]
  GI50: ≥ 10 µM

## Cc1ncsc1-c1ccc(CNC(=O)[C@@H]2C[C@@H](O)CN2C(=O)[C@@H](NC(=O)CCOCCOCCN2CCN(c3ccc(Nc4ncc5ccc(-c6cccc(NS(C)(=O)=O)c6)n5n4)cc3)CC2)C(C)(C)C)cc1 [Example 84, (2S,4R)-1-((S)-3,3-dimethyl-2-(3-(2-(2-(4-(4-((7-(3-(methanesulfonamido)phenyl)pyrrolo[2,1-f][1,2,4]triazin-2-yl)amino)phenyl)piperazin-1-yl)ethoxy)ethoxy)propanamido)butanoyl)-4-hydroxy-N-(4-(4-methylthiazol-5-yl)benzyl)pyrrolidin-2-carboxamide]
H1975
  IC50: 1 to 10 µM
H23
  IC50: 1 to 10 µM
H358
  IC50: 1 to 10 µM
HCT116
  IC50: 1 to 10 µM
MDA-MB-231
  IC50: ≥ 10 µM
colo205
  IC50: ≥ 10 µM
[1]
  GI50: ≥ 10 µM

## CS(=O)(=O)Nc1cccc(-c2ccc3cnc(Nc4ccc(N5CCN(CCCCCCCCCCCOc6cccc7c6C(=O)N(C6CCC(=O)NC6=O)C7=O)CC5)cc4)nn23)c1 (centres unmarked) [Example 42]
H1975
  IC50: ≥ 10 µM
H23
  IC50: ≥ 10 µM
H358
  IC50: ≥ 10 µM
HCT116
  IC50: ≥ 10 µM
MDA-MB-231
  IC50: ≥ 10 µM
colo205
  IC50: ≥ 10 µM
[1]
  GI50: 1 to 10 µM

## O=C1CCCCCCn2cc(cn2)-c2ccc3cnc(nn23)Nc2ccc(cc2)OCCCN1 [Example 17, (1^4Z,2^1Z)-1′H-5-oxa-3,9-diaza-2(7,2)-pyrrolo[2,1-f][1,2,4]triazina-1(4,1)-pyrazola-4(1,4)-benzenacyclohexadecaphan-10-one]
H1975
  IC50: 1 to 10 µM
H23
  IC50: 1 to 10 µM
H358
  IC50: ≥ 10 µM
HCT116
  IC50: 1 to 10 µM
MDA-MB-231
  IC50: ≥ 10 µM
colo205
  IC50: ≥ 10 µM
[1]
  GI50: 1 to 10 µM

## CC(=O)N1CCCn2cc(cn2)Nc2ncc3ccc(n3n2)-c2ccc(cc2)OCC1 [Example 3, 1-((2^1Z,4^4E)-4^1H-11-oxa-3,8-diaza-2(7,2)-pyrrolo[2,1-f1][1,2,4]triazina-4(4,1)-pyrazola-1(1,4)-benzenacycloundecaphane-8-yl)ethan-1-one]
H1975
  IC50: 1 to 10 µM
H23
  IC50: 1 to 10 µM
H358
  IC50: 1 to 10 µM
HCT116
  IC50: < 1 µM
MDA-MB-231
  IC50: 1 to 10 µM
colo205
  IC50: 1 to 10 µM
[1]
  GI50: < 1 µM

Source: US20250136614A1, “2,7-SUBSTITUTED PYRROLO[2,1-F][1,2,4]TRIAZINE COMPOUND HAVING PROTEIN KINASE INHIBITORY ACTIVITY” (Magicbullettherapeutics Co., Ltd., priority 2021, published 2025)
